Earlier results, collected in patent publication US20090162416A1, “Polymer implants for timed release of drugs with particular emphasis on ovulation or spermiation of fish” (priority 2007, published 2009).
Non-standard residues stand in square brackets, D forms with d. pGlu = O=C1CC[C@@H](C(=O)O)N1

System: seasonable ripe gravid female catfish
Conditions: 0.45 mg/lb of body weight

-Glp-His-Trp-Ser-Tyr-Gly-Leu-Arg-Pro-ethylamide- ([pGlu]HWSYGLRP-NHEt) [LHRH, nine amino acid synthetic polypeptide used to promote ovulation in catfish]
time to ovulation after single injection: ≤ 12 h
